Test results published in ChEMBL document CHEMBL1201862, “PubChem BioAssay data set” (2004).
The source made the active and inactive calls.

How the values were obtained:
[1] = molecular target: DNA dC->dU-editing enzyme APOBEC-3G (Homo sapiens, UniProt Q9HC16); test: Dose Response confirmation of small molecule APOBEC3G DNA Deaminase Inhibitors via a fluorescence-based single-stranded DNA deaminase assay. [Related pubchem assays (depositor defined):AID493012, AID493028]; type: functional
[2] = molecular target: Induced myeloid leukemia cell differentiation protein Mcl-1 (Homo sapiens, UniProt Q07820); type: functional
P388/ADR = test: cells; type: functional; settings: Mus musculus
SN12K1 = test: cells; type: functional; settings: Homo sapiens
P388 = test: cells; type: functional; settings: Mus musculus
Paired box protein Pax-8 = Paired box protein Pax-8 (Homo sapiens, UniProt Q06710); test: PAX8 transcriptional activity inhibition in RMG-I – RMG-I cells, luciferase, cherry-pick, dose response (AID 687027); type: functional, cell-based;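 also: luciferase reporter driven by Pax8 target thyroperoxidase promoter measured by SteadyGlo luminescence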
[3] = molecular target: T1, Corticotropin-releasing factor receptor 2/Corticotropin-releasing factor-binding protein (Homo sapiens, UniProt P24387+Q13324); test: Dose Response confirmation of uHTS hits for small molecule antagonists of the CRF-binding protein and CRF-R2 receptor complex.; type: functional; settings: read-out: IC50_Mean
T1 sequence (Q13324 whole entry): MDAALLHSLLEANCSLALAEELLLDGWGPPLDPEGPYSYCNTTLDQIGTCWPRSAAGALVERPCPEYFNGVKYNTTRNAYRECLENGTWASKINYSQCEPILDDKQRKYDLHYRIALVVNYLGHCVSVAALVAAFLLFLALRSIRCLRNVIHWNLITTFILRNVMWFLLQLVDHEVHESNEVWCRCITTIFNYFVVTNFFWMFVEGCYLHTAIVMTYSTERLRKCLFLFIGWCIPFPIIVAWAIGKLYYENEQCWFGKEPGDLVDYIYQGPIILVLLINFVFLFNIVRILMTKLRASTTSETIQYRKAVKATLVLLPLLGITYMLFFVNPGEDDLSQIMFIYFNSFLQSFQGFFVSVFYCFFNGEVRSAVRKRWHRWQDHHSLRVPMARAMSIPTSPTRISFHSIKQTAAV
T1 sequence (P24387 whole entry): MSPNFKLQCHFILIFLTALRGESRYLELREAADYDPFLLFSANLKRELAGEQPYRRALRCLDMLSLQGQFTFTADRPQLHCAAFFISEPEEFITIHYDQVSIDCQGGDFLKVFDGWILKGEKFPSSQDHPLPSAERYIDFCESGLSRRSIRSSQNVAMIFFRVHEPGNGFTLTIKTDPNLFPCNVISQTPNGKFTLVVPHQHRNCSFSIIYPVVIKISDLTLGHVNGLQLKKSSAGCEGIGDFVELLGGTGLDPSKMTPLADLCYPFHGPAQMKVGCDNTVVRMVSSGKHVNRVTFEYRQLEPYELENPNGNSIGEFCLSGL

[4] = molecular target: T1, Corticotropin-releasing factor receptor 2/Corticotropin-releasing factor-binding protein; test: activators of CRF receptor 2 with binding protein – uHTS hits, confirmation (AID 602473); type: functional; settings: read-out: EC50_Mean
[5] = blockers of CRF-binding protein–CRF-R2 complex – cell-based, uHTS hits, 384-well, dose response (AID 651639); type: functional, Homo sapiens; settings: read-out: IC50_Mean
[6] = intracellular Trypanosoma cruzi inhibitors in host cells – cell-based, plate reader, cherry-pick samples, set 3, dose response (AID 651818); type: functional;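 also: compounds incubated with infected cells for about four days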
[7] = reduction of Shn3 3'UTR-driven luciferase in osteoblasts – cell-based, Clone20 osteoblasts, firefly luciferase, cherry-picked, dose response (AID 624132); type: functional;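 also: firefly luciferase luminescence from reporter carrying the Shn3 3'UTR in osteoblasts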
[8] = non-specific 3'UTR reporter inhibition in Clone20-Shn3RL – cell-based, Renilla luciferase, cherry-picked, counter-screen for Shn3 inhibitor project, dose response (AID 624133); type: functional
Protein skinhead-1 = molecular target: T2, Protein skinhead-1 (Caenorhabditis elegans, UniProt P34707); type: functional
T2 sequence (P34707 whole entry): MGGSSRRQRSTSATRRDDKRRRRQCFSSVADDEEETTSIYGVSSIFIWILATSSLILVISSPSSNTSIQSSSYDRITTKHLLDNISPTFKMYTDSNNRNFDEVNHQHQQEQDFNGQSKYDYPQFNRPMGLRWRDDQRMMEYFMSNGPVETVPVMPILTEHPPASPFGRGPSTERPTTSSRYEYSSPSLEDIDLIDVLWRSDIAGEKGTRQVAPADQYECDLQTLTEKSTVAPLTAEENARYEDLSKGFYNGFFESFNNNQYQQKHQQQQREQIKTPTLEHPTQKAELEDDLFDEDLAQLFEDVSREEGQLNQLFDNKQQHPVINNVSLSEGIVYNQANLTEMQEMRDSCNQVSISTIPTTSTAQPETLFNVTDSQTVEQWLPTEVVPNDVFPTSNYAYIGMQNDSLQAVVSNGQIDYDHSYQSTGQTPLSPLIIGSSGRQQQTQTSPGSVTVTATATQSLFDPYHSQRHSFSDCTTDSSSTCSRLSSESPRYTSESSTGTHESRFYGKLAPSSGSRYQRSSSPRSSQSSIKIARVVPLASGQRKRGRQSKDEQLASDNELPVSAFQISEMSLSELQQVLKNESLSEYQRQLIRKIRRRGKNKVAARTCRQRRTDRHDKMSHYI

[9] = growth inhibition of yeast DHODH-expressing 3D7 parasites – SYBR Green, dry powder samples, dose response (AID 1159570); type: functional, cell-based;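 also: parasite growth measured after 72 hours of compound exposure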
[10] = P. falciparum Dd2 growth inhibitors, dose response, SYBR Green, cherry-picked samples (AID 1159567); type: functional, cell-based
[11] = Dd2 malaria parasite growth inhibition potency – SYBR Green, dry powder samples, dose response (AID 1159566); type: functional, cell-based;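 also: potency for growth inhibition with lower SYBR green DNA signal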
[12] = growth inhibition of PfATP4-mutant resistant parasites – NITD609-resistant line, SYBR Green, dry powder, dose response (AID 1159571); type: functional, cell-based;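 also: parasites synchronized at ring stage by sorbitol before testing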

Paired box protein Pax-8, sequence (Q06710 whole entry): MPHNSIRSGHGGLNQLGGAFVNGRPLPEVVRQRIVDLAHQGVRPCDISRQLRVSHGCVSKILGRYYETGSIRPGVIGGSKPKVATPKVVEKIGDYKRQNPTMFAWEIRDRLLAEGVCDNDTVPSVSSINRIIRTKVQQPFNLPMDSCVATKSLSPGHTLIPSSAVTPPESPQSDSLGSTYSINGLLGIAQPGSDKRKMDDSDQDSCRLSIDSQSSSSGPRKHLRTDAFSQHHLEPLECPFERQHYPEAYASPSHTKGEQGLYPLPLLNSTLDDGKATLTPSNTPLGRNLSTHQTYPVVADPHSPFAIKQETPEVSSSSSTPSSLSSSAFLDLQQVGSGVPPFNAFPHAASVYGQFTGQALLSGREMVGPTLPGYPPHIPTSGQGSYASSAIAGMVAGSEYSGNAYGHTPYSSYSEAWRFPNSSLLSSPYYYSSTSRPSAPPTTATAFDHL
Induced myeloid leukemia cell differentiation protein Mcl-1, sequence (Q07820 whole entry): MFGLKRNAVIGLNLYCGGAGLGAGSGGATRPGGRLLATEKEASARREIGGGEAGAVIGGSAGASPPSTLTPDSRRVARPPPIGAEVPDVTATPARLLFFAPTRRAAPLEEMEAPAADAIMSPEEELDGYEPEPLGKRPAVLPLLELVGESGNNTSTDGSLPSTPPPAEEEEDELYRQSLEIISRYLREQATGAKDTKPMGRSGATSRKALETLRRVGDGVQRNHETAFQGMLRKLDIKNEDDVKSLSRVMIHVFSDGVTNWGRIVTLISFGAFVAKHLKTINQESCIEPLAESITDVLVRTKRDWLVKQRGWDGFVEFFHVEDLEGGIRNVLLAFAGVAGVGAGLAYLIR
DNA dC->dU-editing enzyme APOBEC-3G, sequence (Q9HC16 whole entry): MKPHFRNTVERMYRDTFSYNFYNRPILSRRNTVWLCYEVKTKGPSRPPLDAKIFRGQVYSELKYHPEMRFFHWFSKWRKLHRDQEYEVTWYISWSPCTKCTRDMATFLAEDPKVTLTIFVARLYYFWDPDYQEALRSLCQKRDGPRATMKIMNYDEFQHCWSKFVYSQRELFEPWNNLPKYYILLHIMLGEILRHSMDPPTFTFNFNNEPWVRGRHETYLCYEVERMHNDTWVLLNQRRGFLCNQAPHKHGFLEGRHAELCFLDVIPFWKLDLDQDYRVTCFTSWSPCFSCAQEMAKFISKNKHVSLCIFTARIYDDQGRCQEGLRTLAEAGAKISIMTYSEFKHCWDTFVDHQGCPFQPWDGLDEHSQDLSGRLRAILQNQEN

| SMILES | GI50 (P388/ADR) | GI50 (SN12K1) | GI50 (P388) | AC50 [6] | also measured |
| --- | --- | --- | --- | --- | --- |
| COc1ccc(Cc2nnc(S)n2C)cc1Br | – | – | – | – | IC50 [1]: 18.9 µM (active) |
| CCOC(=O)c1c(NC(=O)c2cc(-c3ccc(O)cc3)on2)sc(C(C)=O)c1C | – | – | – | – | IC50 [2]: 3.69 µM (active) |
| CC(C)CCCCCCCCCCCCC(=O)NCC(=O)NC1C(C)OC(Nc2[nH]cnc3ncnc2-3)C(O)C1O (stereo not given) | 10 nM (active) | 0.01 µM (active) | 10 nM (active) | – | AC50 (Paired box protein Pax-8): < 260 nM (active) |
| N#Cc1ccc(CN(Nc2ccccc2)c2ccccc2)cc1 | – | – | – | – | IC50 [3]: 14.3 µM (active); EC50 [4]: > 53 µM (inactive); IC50 [5]: 10 µM (active) |
| CN(C)CCOc1cc2c(c3ccccc13)-c1ccccc1C2O (stereo not given) | 5770 nM (inactive) | 6.62 µM (inactive) | 5020 nM (inactive) | – | – |
| C[C@H](CO)N1C[C@H](C)[C@H](CN(C)Cc2ccc(C(=O)Nc3ccccc3N)cc2)Oc2ccc(NC(=O)C3CC3)cc2CC1=O | – | – | – | 2.66 µM (active) | – |
| Cc1ccc(S(=O)(=O)N(C)C[C@H]2Oc3c(NC(=O)c4nc5ccccc5s4)cccc3C(=O)N([C@H](C)CO)C[C@@H]2C)cc1 | – | – | – | 0.839 µM (active) | – |
| COc1ccc(NC(=O)Nc2cccc3c2O[C@@H](CN(C)Cc2ccc(C(=O)O)cc2)[C@@H](C)CN([C@@H](C)CO)C3=O)cc1 | – | – | – | 20 µM (inactive) | – |
| C[C@@H]1CN([C@H](C)CO)C(=O)Cc2cc(NC(=O)Nc3ccc(C(F)(F)F)cc3)ccc2O[C@@H]1CN(C)S(=O)(=O)c1ccccc1 | – | – | – | 4.23 µM (active) | – |
| C[C@@H]1CCCCO[C@@H](CN(C)Cc2ccc(Cl)c(Cl)c2)[C@@H](C)CN([C@H](C)CO)C(=O)c2cc(NS(=O)(=O)c3ccccc3)ccc2O1 | – | – | – | 5.37 µM (active) | – |
| CSC1SCC2C(=O)N(C)C(C(C)C)C(=O)OCC(NC(=O)c3cnc4ccccc4n3)C(=O)NC(C)C(=O)N(C)C1C(=O)N(C)C(C(C)C)C(=O)OCC(NC(=O)c1cnc3ccccc3n1)C(=O)NC(C)C(=O)N2C (stereo not given) | 0.0955 nM (active) | 0.0075 µM (active) | 7.5 nM (active) | – | AC50 [7]: < 260 nM (active); AC50 [8]: < 260 nM (active); IC50 (Protein skinhead-1): 81.5 µM (inactive) |
| COc1ccccc1S(=O)(=O)N(C)C[C@@H]1OCc2ccccc2-c2c(n(C)c3ccccc23)C(=O)N([C@@H](C)CO)C[C@@H]1C | – | – | – | – | AC50 [9]: 507 nM (active); AC50 [10]: 2.19 µM (active); AC50 [11]: 445 nM (active); AC50 [12]: 440 nM (active) |
| CN(C)C(=O)Oc1c(Br)cc(Br)cc1C(=O)OCc1ccccc1 | 16000 nM (inactive) | 28.4 µM (inactive) | 17900 nM (inactive) | – | – |
